Reference: patent US11015223B2, “Methods for determining response to a hypomethylating agent” (THE REGENTS OF THE UNIVERSITY OF CALIFORNIA, priority 2013, dated 2021)
“And” between values parts separate entries of the source, which are not always exact repeats. Equal entries are not always repeated.

Legend:
[1] = Peripheral blood CBC of recipient mice in competitive murine bone marrow transplant; format: in vivo
Protocol: (§1) Age-matched Tet2^−/−; Mx-Cre^+ and Tet2^+/+; Mx-Cre^+ donor animals (CD45.2) were treated with pIpC (15 μg/g IP) for three non-consecutive days to induce excision of exon 3 of Tet2. Donor bone marrow was harvested two weeks post-pIpC and mixed in a 1:2 ratio with bone marrow harvested from 45.1 WT donors (B6.SJL-Ptprca Pepcb/BoyJ; Jackson), and was then transplanted into 45.1 recipients for a total of 1 million cells/recipient. Peripheral blood engraftment was assessed by FACS at two weeks post-transplant, at which point recipient mice were divided into treatment groups (n=7 per group) and treated with either 5-azacitidine (aza; 2.5 mg/kg IP; Santa Cruz Biotechnology) or vehicle control on the following schedule: two weeks on, two weeks off. Peripheral blood chimerism and CBC were assessed following each round of treatment. Percent 45.2 chimerism was calculated for each time point. Error bars indicate standard error of the mean (SEM) for each group, and p-values for the last time point were calculated using an unpaired two-sample t-test.
The observed association between TET2 mutations and response to treatment could be mediated directly by TET2 loss-of-function or by indirect or cell extrinsic effects. To test whether TET2 loss-of-function can sensitize cells to hypomethylating agents, we performed a competitive murine bone marrow transplant experiment using hematopoietic cells from Tet2-null and wildtype littermate donors. […] There was no difference in pretreatment peripheral blood counts between groups. Treatment with AZA (2.5 mg/kg M-F×2 weeks) or vehicle was begun on day 20 post-transplant and repeated starting on day 48.

MDS patients [2] = assay: Response to treatment by IWG response criteria revised in 2006 (CR/PR/HI = responders); format: in vivo, human
From the text: A total of 213 MDS patients treated azacitidine or decitabine were included in this study. Samples were obtained from patients treated at the Dana-Farber Cancer Institute (n=42), the MD Anderson Cancer Center (n=104), and as part of the DACO-020 (ADOPT) clinical trial of decitabine (n=67). All samples were collected with patient consent under IRB-approved protocols in accordance with the Declaration of Helsinki. There were no significant differences in baseline patient characteristics by treatment site (Table 1).
Response to treatment was assessed using IWG response criteria revised in 2006. Patients with either a complete response (CR), partial response (PR), or hematologic improvement (HI) were considered as ‘responders’ (R, n=100, 47%). whereas patients described as having ‘no response’, ‘stable disease’, ‘progressive disease’, ‘death’ before response assessment, or ‘not evaluable’ were considered ‘non-responders’ (NR, […], 53%).
Categorical variables were compared using a Fisher exact test, while continuous variables were compared using a Wilcoxon rank-sum test. A Cochran-Mantel-Haenszel (CMH) test was used to test for differences in response rate by mutational status controlling for treatment. Unadjusted and adjusted logistic regression models were used to predict response to therapy. A stepwise algorithm for logistic regression was also utilized to determine a final model; candidate variables considered for inclusion were all mutations, treatment, IPSS classification, age, and sex. The Hosmer and Lemeshow goodness-of-fit test was used to assess model fit for logistic regression models. Overall survival was calculated from the time of treatment to the time of death from any cause or was censored at the date last known alive. Unadjusted and adjusted Cox regression models were constructed for overall survival. A stepwise regression algorithm for Cox regression models was used including the same candidate variables as in the logistic regression modeling. Classification trees were also created using the Rpart package in R version 2.11.1 to classify responders based on mutational status. Cross-validation was used for tree pruning. All p-values reported are two-sided and considered significant at the 0.05 level. No adjustments were made for multiple hypothesis testing.

MDS patients [3] = details: cited from earlier work
Tet2-null cells = assay: Competitive murine bone marrow transplant, percent 45.2 chimerism in peripheral blood; format: in vivo
Protocol: as §1
The observed association between TET2 mutations and response to treatment could be mediated directly by TET2 loss-of-function or by indirect or cell extrinsic effects. […]

[4] = 2.5 mg/kg M-F x 2 weeks, regardless of genotype, vs vehicle
[5] = murine bone marrow transplant experiment

For `Nc1ncn([C@@H]2O[C@H](CO)[C@@H](O)[C@H]2O)c(=O)n1` [azacitidine, 5-azacytidine], the WBC levels [1, 4] was “significant decreases”, the hematocrit [1, 4] was “significant decreases” and the “total number of mature granulocytes” value [1, 5] was “increasing”. For the same compound, the “Non-Responders (NR/SD/PD/Died/NE) (%)” value (MDS patients [2]; all patients on the treatment) was “(52) %”, the “Non-Responders (NR/SD/PD/Died/NE) N” value (MDS patients [2]; all patients on the treatment) was 22 N and the “Responders (CR/PR/HI) N” value (MDS patients [2]; all patients on the treatment) was 20 N. For the same compound, the “Responders (CR/PR/HI) (%)” value (MDS patients [2]; all patients on the treatment, listed as Azacitidine Alone) was “(48) %”, the “Response N” value (MDS patients [2]; patients with ASXL1 mutation) was 11 N and the “Response N” value (MDS patients [2]; patients with ATRX mutation, listed as Aza Alone) was 0 (0) N and 0 N. The “Response N” value (MDS patients [2]; patients with BCOR mutation) was 2 N, the “Response N” value (MDS patients [2]; patients with CBL mutation) was 1 N and the “Response N” value (MDS patients [2]; patients with DNMT3A mutation) was 3 N. The “Response N” value (MDS patients [2]; patients with ETV6 mutation) was 2 N, the “Response N” value (MDS patients [2]; patients with EZH2 mutation) was 3 N and the “Response N” value (MDS patients [2]; patients with IDH1 mutation) was 1 N. For the same compound, the “Response N” value (MDS patients [2]; patients with IDH2 mutation) was 2 N, the “Response N” value (MDS patients [2]; patients with JAK2 mutation) was 2 N and the “Response N” value (MDS patients [2]; patients with KDM3A mutation, listed as Aza Alone) was 0 (0) N and 0 N. The “Response N” value (MDS patients [2]; patients with KDM6B mutation) was 1 N, the “Response N” value (MDS patients [2]; patients with KRAS mutation) was 1 N and the “Response N” value (MDS patients [2]; patients with MAML1 mutation, listed as Aza Alone) was 0 (0) N and 0 N. The “Response N” value (MDS patients [2]; patients with NF1 mutation) was 2 N, the “Response N” value (MDS patients [2]; patients with NOTCH1 mutation) was 2 N and the “Response N” value (MDS patients [2]; patients with NOTCH2 mutation) was 2 N. The “Response N” value (MDS patients [2]; patients with NPM1 mutation, listed as Aza Alone) was 0 (0) N and 0 N, the “Response N” value (MDS patients [2]; patients with NRAS mutation) was 3 N and the “Response N” value (MDS patients [2]; patients with PHF6 mutation) was 1 N. For the same compound, the “Response N” value (MDS patients [2]; patients with PRPF8 mutation) was 1 N, the “Response N” value (MDS patients [2]; patients with PTPN11 mutation, listed as Aza Alone) was 0 (0) N and 0 N and the “Response N” value (MDS patients [2]; patients with RUNX1 mutation) was 3 N. The “Response N” value (MDS patients [2]; patients with SCAF11 mutation) was 1 N, the “Response N” value (MDS patients [2]; patients with SF3B1 mutation) was 3 N and the “Response N” value (MDS patients [2]; patients with SRSF2 mutation) was 3 N. The “Response N” value (MDS patients [2]; patients with TET2 mutation) was 6 N, the “Response N” value (MDS patients [2]; patients with TLR1 mutation, listed as Aza Alone) was 0 (0) N and 0 N and the “Response N” value (MDS patients [2]; patients with TP53 mutation) was 6 N. For the same compound, the “Response N” value (MDS patients [2]; patients with U2AF1 mutation) was 4 N, the “Response N” value (MDS patients [2]; patients with ZRSR2 mutation) was 1 N and the “MDS patients with TET2 mutations who responded to treatment” value (MDS patients [3]; TET2 mutations detected by Sanger sequencing) was 11 of 13. The response rate (MDS patients [3]; overall cohort of 86 patients) was 52%, the “level of representation in peripheral blood” value (Tet2-null cells; Tet2-null cells, after two cycles, 2.5 mg/kg IP) was “significantly decreased level of representation” and the “clonal advantage associated with loss of Tet2 function” value (Tet2-null cells; [5]) was “preferentially decreased”.
